Results on 7 compounds are retold here after article PMC6862250, “Lipophilicity Determination of Quaternary (Fluoro)Quinolones by Chromatographic and Theoretical Approaches” (International Journal of Molecular Sciences, 2019).

Holding throughout (type): physicochemical
Series [1] in a line: RP-TLC lipophilicity, silica gel C18, methanol-water. As to conditions: for C 0: RP-TLC silica gel C18, C0 = −RM^0/b; for PC1: RP-TLC silica gel C18, first principal component of RM values, contains 86.92% of information; for mRM: RP-TLC silica gel C18, mean value of RM; for R M ^0: RP-TLC silica gel C18, methanol-water 40 to 70% (v/v), intercept of Soczewiński–Wachtmeister equation; for b: RP-TLC silica gel C18, slope of Soczewiński–Wachtmeister equation. The method, then: (§1) The ready-to-use TLC glass plates covered by octadecyl(C18)- and octyl(C8)-modified TLC silica layers were purchased from Merck (Darmstadt, Germany). Stock solutions (5 µL) of the analytes were spotted manually on the plates with the use of a micropipette from Brand (Wertheim, Germany). The mobile phases were prepared by mixing appropriate volumes of pure organic solvents and water (in step gradient by 10% (v/v)), in the following proportions: (a) methanol–water ranging from 30 to 70% (v/v), in the case of C8-bonded silica gel stationary phase; and (b) methanol–water ranging from 40 to 70% (v/v), in the case of C18-bonded silica gel stationary phase.
(§2) Before analysis, the chromatographic chamber (Twin Trough Chambers from CAMAG Philadelphia, USA) was saturated for 20 min. All TLC experiments were performed at room temperature (22 ± 2 °C). Chromatograms were developed using the ascending technique to a distance of 8 cm. The investigated substances were visualized under UV light at λ = 366 nm by CAMAG UV Lamp 4 and the Viewing Box 4 (Philadelphia, USA). […] The obtained retardation factors (RF) were collected in the Supplementary data sheets. The retention parameter, RM, was calculated for each compound according to the Bate-Smith and Westall formula: (7) RM=log(1/RF−1) and listed in Table S2. Next, the Soczewiński–Wachtmeister’s equation: RM = RM^0 + bC(8) was used in order to determine the basic lipophilic RP-TLC parameter RM^0 as well as commonly used hydrophobic constants m. Soczewiński–Wachtmeister’s equation presented a linear relationship between concentration of the organic solvent in mobile phase (C) and RM value. Moreover, mean value of RM was used for lipophilicity assessments.
(§3) Furthermore, C0 RP-TLC lipophilicity parameter, introduced by Bieganowska, has been calculated according to the formula:(9) C0=−RM^0/b.
(§4) The C0 parameter corresponds to the parameter φ0, previously proposed for the HPLC. This parameter relates to the concentration of the organic component in the mobile phase for which the distribution of the analyzed substance between the mobile and stationary phase is equal (1:1).
(§5) Also, the principal component analysis (PCA) was applied in order to extract information regarding the lipophilicity of solutes and formulate them as the first principal component (PC1). Calculation data matrixes included RM values of solutes for each modifier concentration in the mobile phase.

Series [2] is described as follows: MEKC lipophilicity (SDS micelles, pH 7.4). The conditions noted are these: 50 mM SDS, HEPES/TRIS buffer pH 7.4, 25 °C. The procedure:
All MEKC experiments were carried out with a P/ACE MDQ plus system (Sciex, Framingham, MA, USA) equipped with photodiode array detector (PDA) and controlled by 32 Karat software (version 10.2). The uncoated fused silica capillaries (50 µm i.d., Polymicro Technologies, West Yorkshire, UK) of 60 cm total length and 50.2 cm effective length were used. Prior to analysis, the capillary was rinsed with 0.1 M NaOH for 30 min, ultrapure water for 10 min, and background electrolyte (BGE) for 30 min. After each analysis, the capillary was conditioned with BGE for 2 min. The applied pressure for all rinsing operations was 345 kPa. The analytes were dissolved in BGE at concentration of 100 µg/mL with addition of quinine (micelles marker). As electroosmotic flow (EOF) marker, DMSO was used. The samples were hydrodynamically injected at 35 kPa for 5 s. The separations were performed by applying voltage of 20 kV with positive polarity and constant temperatures at 25 ± 0.1 °C. The BGE consisted of aqueous solution of 50 mM SDS and 120 mM HEPES /100 mM TRIS buffer of pH 7.4. The BGE was prepared each working day by dilution of stock solution. Detection was carried out at 200 and 280 nm with 8 Hz probing frequency. The logarithm of retention factor logk was calculated according to the equation introduced by Terabe and co-workers:(10) logkMEKC=log(tR−tEOF/tEOF(1−tR/tMC)) The established logk parameters are summarized in Table 2.

Series [3] in a line: RP-TLC lipophilicity, silica gel C8, methanol-water. The conditions noted are these: for C 0: RP-TLC silica gel C8, C0 = −RM^0/b; for PC1: RP-TLC silica gel C8, first principal component of RM values, contains 83.57% of information; for mRM: RP-TLC silica gel C8, mean value of RM; for R M ^0: RP-TLC silica gel C8, methanol-water 30 to 70% (v/v), intercept of Soczewiński–Wachtmeister equation; for b: RP-TLC silica gel C8, slope of Soczewiński–Wachtmeister equation. The method, then: as §1, §2, §3, §4, §5

With `C[C@@H]1CN(c2c(F)c(N)c3c(=O)c(C(=O)O)cn(C4CC4)c3c2F)C[C@H](C)N1` [Compound 20, reference compound], in series [1], the “C 0” value was 0.99, the PC1 was −1.40, the mRM is given as 1.28 and the “R M ^0” value turned out to be 2.85. This compound showed a b in series [1] of −2.88. Also, the logk in series [2] is given as 0.116. Also, in series [3], the “C 0” value stood at 1.07, the PC1 is −3.81, the mRM is 1.21 and the “R M ^0” value is 2.27. In series [3], the b was −2.13.

For `CCn1cc(C(=O)O)c(=O)c2cc(F)c(N3CC[N+]4(CC3)CN3C(C)=CC(C)=C(C(=O)O)C3=N4)nc21.[Cl-]` [Compound 11], in series [1], the “C 0” value amounted to 1.08, the PC1 came to 1.51, the mRM amounted to 0.84 and the “R M ^0” value is 1.72. Moreover, in series [1], the b is −1.59. The compound further had a logk in series [2] of −0.398. Further, in series [3], the “C 0” value was determined as 1.06, the PC1 is on record as −0.54, the mRM is reported as 0.84 and the “R M ^0” value is 1.59. In series [3], this compound displayed a b of −1.50.

Regarding `CCn1cc(C(=O)O)c(=O)c2cc(F)c(N3CCNC(C)C3)c(F)c21` (stereo not drawn) [Compound 17, reference compound], in series [1], the “C 0” value turned out to be 1.15, the PC1 is reported as −1.08, the mRM turned out to be 1.22 and the “R M ^0” value was 2.33. The compound also showed a b in series [1] of −2.03. Besides, in series [2], the logk is 0.077. In series [3], the “C 0” value amounted to 1.34, the PC1 was −4.09, the mRM is listed as 1.29 and the “R M ^0” value is listed as 2.06. In series [3], this compound displayed a b of −1.54.

For `CCn1cc(C(=O)O)c(=O)c2cnc(N3CCNCC3)nc21` [Compound 19, pipemidic acid, reference compound], in series [1], the “C 0” value turned out to be 1.35, the PC1 was −1.24, the mRM is on record as 1.24 and the “R M ^0” value is listed as 2.39. This compound yielded a b in series [1] of −1.78. In series [2], the logk is −0.170. For the same compound, the logk in series [2] (listed as pipemidic acid) is on record as −0.1697. In series [3], the “C 0” value was 1.65, the PC1 is reported as −3.91, the mRM was found to be 1.30 and the “R M ^0” value is recorded as 1.87. Besides, the b in series [3] was −1.13.

As for `CCn1cc(C(=O)O)c(=O)c2cnc(N3CC[N+]4(CC3)CN3C(=N4)C(C(=O)O)=Cc4ccccc43)nc21.[Cl-]` [Compound 6], in series [1], the “C 0” value is 1.23, the PC1 is recorded as 0.53, the mRM stood at 0.98 and the “R M ^0” value is 1.78. The b in series [1] is given as −1.45. In series [3], the “C 0” value is recorded as 2.35, the PC1 is listed as −1.73, the mRM was found to be 1.04 and the “R M ^0” value stood at 1.32. Besides, the b in series [3] was −0.56.

Consider `O=C(O)c1cn(C2CC2)c2cc(N3CCNCC3)c(F)cc2c1=O` [Compound 22, ciprofloxacin, reference compound], for which, in series [1], the “C 0” value is recorded as 1.30, the PC1 was −3.88, the mRM worked out at 1.62 and the “R M ^0” value is recorded as 2.79. Also, the b in series [1] is −2.15. Also, in series [3], the “C 0” value is listed as 1.61, the PC1 was −5.04, the mRM is on record as 1.41 and the “R M ^0” value was determined as 2.04. In series [3], the b is on record as −1.27.

Turning to `CCn1cc(C(=O)O)c(=O)c2cnc(N3CC[N+]4(CC3)CN3C(C)=CC(C)=C(C(=O)O)C3=N4)nc21.[Cl-]` [Compound 10], in series [1], the “C 0” value amounted to 1.22, the PC1 is given as 2.53, the mRM was 0.70 and the “R M ^0” value came out at 1.27. In series [1], this compound displayed a b of −1.04. In addition, in series [3], the “C 0” value was 1.28, the PC1 is 0.79, the mRM is 0.71 and the “R M ^0” value amounted to 1.16. This compound registered a b in series [3] of −0.91.
